Reference: US8207146B2, “Phenothiazine derivative having a double bond, method for the production thereof, and use thereof as a pharmaceutical” (Sanofi-Aventis, priority 2007, dated 2012)

Target: T1, Human glucokinase (Homo sapiens, UniProt P35557)
T1 sequence (P35557 6-464 isoform P35557-3 limits assumed): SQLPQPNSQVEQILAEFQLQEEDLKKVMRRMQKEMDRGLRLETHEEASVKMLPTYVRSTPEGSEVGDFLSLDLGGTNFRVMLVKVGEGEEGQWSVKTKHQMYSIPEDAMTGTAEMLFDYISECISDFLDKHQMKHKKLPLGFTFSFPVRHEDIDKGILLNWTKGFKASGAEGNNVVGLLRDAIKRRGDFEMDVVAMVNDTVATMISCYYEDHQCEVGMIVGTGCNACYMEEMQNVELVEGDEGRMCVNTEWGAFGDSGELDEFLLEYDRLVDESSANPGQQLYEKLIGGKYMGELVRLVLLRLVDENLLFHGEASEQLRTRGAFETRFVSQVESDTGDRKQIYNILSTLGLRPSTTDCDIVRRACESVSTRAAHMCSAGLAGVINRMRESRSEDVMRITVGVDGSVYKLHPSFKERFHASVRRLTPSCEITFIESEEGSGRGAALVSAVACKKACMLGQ
Conditions: 5 mM glucose; for EC150: concentration of test compound which increases the enzymatic activity by 50%, 1 mM ATP, 25° C., pH 7; for Fold induction: maximum fold stimulation: highest change in extinction in the range 0.1-100 μM relative to change without test substance

Q: With `CN1c2ccccc2S(=O)(=O)c2ccc(/C(=C\C3CCCC3)C(=O)Nc3ccn(C)n3)cc21` [Example 1, (E)-3-cyclopentyl-2-(10-methyl-5,5-dioxo-5,10-dihydrophenothiazin-2-yl)-N-(1-methyl-1H-pyrazol-3-yl)acrylamide] as the molecule, how does the EC150 read?
A: The EC150 was 1.70 µM.

Q: And the Fold induction?
A: Its Fold induction is 3.2.

Q: Which EC150 does the source give for `COc1ccc2nc(NC(=O)/C(=C/C3CCC(=O)CC3)c3ccc4c(c3)Nc3ccccc3S4(=O)=O)sc2n1` [Example 4, (E)-2-(5,5-dioxo-5,10-dihydrophenothiazin-2-yl)-N-(5-methoxythiazolo[5,4-b]pyridin-2-yl)-3-(4-oxocyclohexyl)acrylamide] here?
A: Its EC150 is 0.2 µM.

Q: What about the Fold induction of the same molecule?
A: Its Fold induction is 4.8.
